Measured values taken from US20230085307A1, “PYRIDAZINONE COMPOUND AND HERBICIDE” (NISSAN CHEMICAL CORPORATION, priority 2019, published 2023).

Experiments:
wild oat [1] = assay: Test Example 4: herbicidal effect by soil treatment (Table 19, symbol I); format: in vivo, wild oat (Avena fatua)
Method in brief: (§1)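 Emulsion of test compound, water-diluted to predetermined amount, sprayed on soil after sowing (seed depth ~1.5 cm, sterilized diluvial soil). Greenhouse, 25–30° C. Effect graded at three weeks post-spray.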

lambsquarters [2] = assay: Test Example 4: herbicidal effect by soil treatment (Table 19, symbol O); format: in vivo, lambsquarters (Chenopodium album)
Method in brief: as §1

Japanese bulrush = assay: Test Example 1: herbicidal activity, application before weed generation under submerged conditions (Table 16, symbol B); format: in vivo, Japanese bulrush (Schoenoplectus juncoides); details: for Herbicidal effect on B: Japanese bulrush (grade 0-5): 320 g/ha applied herbicide
Method in brief: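 Submerged Wagner pots (alluvial soil, 4 cm water) sown with weed seeds and planted with 2.5-leaf rice seedlings; emulsifiable concentrate diluted in water applied to water surface on sowing day. Held in greenhouse at 25-30 °C; injury scored 0-5 by herbicidal rate after three weeks.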

persian speedwell [3] = assay: Test Example 4: herbicidal effect by soil treatment (Table 19, symbol R); format: in vivo, Persian speedwell (Veronica persica)
Method in brief: as §1

windgrass [4] = assay: Test Example 5: herbicidal effect by foliage application, plastic box (Table 20, symbol L); format: in vivo, windgrass (Apera spica-venti); details: foliage application
Method in brief: (§2)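 Post-emergence foliar test in sterilized diluvial soil. Compound applied as water-diluted emulsion at a predetermined rate to 14-day-old plants; evaluation at three weeks.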

oval-leafed pondweed = assay: Test Example 2: herbicidal activity, application during weed generation under submerged conditions (Table 17, symbol C); format: in vivo, oval-leafed pondweed (Monochoria vaginalis); details: application during weed generation, submerged conditions
Method in brief: (§3)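 In this pot test, flooded alluvial soil (water depth 4 cm) holds all three species sown as a mixture. Once seedlings have one to two leaves, the compound's emulsion, thinned with water to the intended dose, is poured on the water; grading follows after three weeks on the earlier criteria.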

lambsquarters [5] = assay: Test Example 5: herbicidal effect by foliage application, plastic box (Table 20, symbol O); format: in vivo, lambsquarters (Chenopodium album); details: foliage application
Method in brief: as §2

barnyard grass = assay: Test Example 5: herbicidal effect by foliage application, plastic box (Table 20, symbol H); format: in vivo, barnyard grass (Echinochloa crus-galli); details: foliage application
Method in brief: as §2

Chinese sprangletop = assay: Test Example 3: herbicidal effect by foliage application, Wagner pot (Table 18, symbol D); format: in vivo, chinese sprangletop (Leptochloa chinensis); details: for herbicidal effect on D (Chinese sprangletop), rating 0-5: 320 g/ha
Method in brief: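 Plants were sown in alluvial soil held under 0.1–0.5 cm standing water and grown 14 days in a greenhouse at 25–30 °C. An emulsifiable formulation, water-diluted to the set dose, was then sprayed onto the foliage, and effects were scored three weeks later using previously defined criteria.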

windgrass [6] = assay: Test Example 4: herbicidal effect by soil treatment (Table 19, symbol L); format: in vivo, windgrass (Apera spica-venti)
Method in brief: as §1

velvetleaf = assay: Test Example 5: herbicidal effect by foliage application, plastic box (Table 20, symbol M); format: in vivo, velvetleaf (Abutilon theophrasti); details: foliage application
Method in brief: as §2

southern crabgrass = assay: Test Example 4: herbicidal effect by soil treatment (Table 19, symbol F); format: in vivo, southern crabgrass (Digitaria ciliaris)
Method in brief: as §1

persian speedwell [7] = assay: Test Example 5: herbicidal effect by foliage application, plastic box (Table 20, symbol R); format: in vivo, Persian speedwell (Veronica persica); details: foliage application
Method in brief: as §2

blackgrass = assay: Test Example 4: herbicidal effect by soil treatment (Table 19, symbol J); format: in vivo, blackgrass (Alopecurus myosuroides)
Method in brief: as §1

wild oat [8] = assay: Test Example 5: herbicidal effect by foliage application, plastic box (Table 20, symbol I); format: in vivo, wild oat (Avena fatua); details: foliage application
Method in brief: as §2

Italian ryegrass = assay: Test Example 4: herbicidal effect by soil treatment (Table 19, symbol K); format: in vivo, Italian ryegrass (Lolium multiflorum)
Method in brief: as §1

late watergrass = assay: Test Example 2: herbicidal activity, application during weed generation under submerged conditions (Table 17, symbol A); format: in vivo, late watergrass (Echinochloa oryzicola); details: application during weed generation, submerged conditions
Method in brief: as §3

[9] = amount of applied herbicide 320 g/ha
[10] = AAH 320 g/ha, evaluated three weeks after application
[11] = amount of applied herbicide 246 g/ha
[12] = 246 g/ha, three weeks after application
[13] = 320 g/ha, 3 weeks after application
[14] = 320 g/ha, evaluated three weeks after application

CCCC(=O)Oc1c(C)nn(C)c(=O)c1-c1c(-c2ccc(SC3CC3)cc2)sc2ccc(F)cc12 [2-255]
herbicidal effect on I: wild oat (wild oat [1]; [9]): 0 (Herbicidal rate of 5% or less (almost no effect))
herbicidal effect on O: lambsquarters (lambsquarters [2]; [9]): 3 (Herbicidal rate of 40% or more and less than 70%)
Herbicidal effect on B: Japanese bulrush (grade 0-5) (Japanese bulrush): 3 (Herbicidal rate of 40% or more and less than 70%)
herbicidal effect on R: persian speedwell (persian speedwell [3]; [9]): 5 (Herbicidal rate of 90% or more (almost completely withered))
L: windgrass, herbicidal effect (criteria 0-5) (windgrass [4]; [10]): 5 (Herbicidal rate of 90% or more (almost completely withered))
herbicidal effect rating, C: oval-leafed pondweed (oval-leafed pondweed; AAH 320 g/ha): 2 (Herbicidal rate of 20% or more and less than 40%)
O: lambsquarters, herbicidal effect (criteria 0-5) (lambsquarters [5]; [10]): 4 (Herbicidal rate of 70% or more and less than 90%)
H: barnyard grass, herbicidal effect (criteria 0-5) (barnyard grass; [10]): 5 (Herbicidal rate of 90% or more (almost completely withered))
herbicidal effect on D: Chinese sprangletop (Chinese sprangletop; [9]): 4 (Herbicidal rate of 70% or more and less than 90%)
herbicidal effect on L: windgrass (windgrass [6]; [9]): 3 (Herbicidal rate of 40% or more and less than 70%)
M: velvetleaf, herbicidal effect (criteria 0-5) (velvetleaf; [10]): 5 (Herbicidal rate of 90% or more (almost completely withered))
herbicidal effect on F: southern crabgrass (southern crabgrass; [9]): 0 (Herbicidal rate of 5% or less (almost no effect))
R: persian speedwell, herbicidal effect (criteria 0-5) (persian speedwell [7]; [10]): 5 (Herbicidal rate of 90% or more (almost completely withered))
herbicidal effect on J: blackgrass (blackgrass; [9]): 1 (Herbicidal rate of 5% or more and less than 20%)
I: wild oat, herbicidal effect (criteria 0-5) (wild oat [8]; [10]): 5 (Herbicidal rate of 90% or more (almost completely withered))
herbicidal effect on K: Italian ryegrass (Italian ryegrass; [9]): 3 (Herbicidal rate of 40% or more and less than 70%)
herbicidal effect rating, A: late watergrass (late watergrass; AAH 320 g/ha): 4 (Herbicidal rate of 70% or more and less than 90%)

CCCC(=O)Oc1c(C)nn(C)c(=O)c1-c1c(-c2ccc(F)cc2OCC)oc2ccc(C)cc12 [9-010]
I: wild oat, herbicidal effect grade (wild oat [1]; [11]): 0 (Herbicidal rate of 5% or less (almost no effect))
O: lambsquarters, herbicidal effect grade (lambsquarters [2]; [11]): 0 (Herbicidal rate of 5% or less (almost no effect))
Herbicidal effect, B: Japanese bulrush (Japanese bulrush; [11]): 3 (Herbicidal rate of 40% or more and less than 70%)
R: persian speedwell, herbicidal effect grade (persian speedwell [3]; [11]): 0 (Herbicidal rate of 5% or less (almost no effect))
herbicidal effect on windgrass (L) (windgrass [4]; [12]): 0 (Herbicidal rate of 5% or less (almost no effect))
herbicidal effect rating, C: oval-leafed pondweed (oval-leafed pondweed; AAH 246 g/ha): 2 (Herbicidal rate of 20% or more and less than 40%)
herbicidal effect on lambsquarters (O) (lambsquarters [5]; [12]): 3 (Herbicidal rate of 40% or more and less than 70%)
herbicidal effect on barnyard grass (H) (barnyard grass; [12]): 3 (Herbicidal rate of 40% or more and less than 70%)
Herbicidal effect on D (Chinese sprangletop), foliage application (Chinese sprangletop; [11]): 5 (Herbicidal rate of 90% or more (almost completely withered))
L: windgrass, herbicidal effect grade (windgrass [6]; [11]): 0 (Herbicidal rate of 5% or less (almost no effect))
herbicidal effect on velvetleaf (M) (velvetleaf; [12]): 4 (Herbicidal rate of 70% or more and less than 90%)
F: southern crabgrass, herbicidal effect grade (southern crabgrass; [11]): 0 (Herbicidal rate of 5% or less (almost no effect))
herbicidal effect on persian speedwell (R) (persian speedwell [7]; [12]): 3 (Herbicidal rate of 40% or more and less than 70%)
J: blackgrass, herbicidal effect grade (blackgrass; [11]): 0 (Herbicidal rate of 5% or less (almost no effect))
herbicidal effect on wild oat (I) (wild oat [8]; [12]): 1 (Herbicidal rate of 5% or more and less than 20%)
K: Italian ryegrass, herbicidal effect grade (Italian ryegrass; [11]): 0 (Herbicidal rate of 5% or less (almost no effect))
herbicidal effect rating, A: late watergrass (late watergrass; AAH 246 g/ha): 0 (Herbicidal rate of 5% or less (almost no effect))

Cc1nn(C)c(=O)c(-c2c(-c3ccc(F)cc3)sc3ccc(F)cc23)c1O [2-001]
I: wild oat, herbicidal effect rating (wild oat [1]; AAH 320 g/ha): 3 (Herbicidal rate of 40% or more and less than 70%)
O: lambsquarters, herbicidal effect rating (lambsquarters [2]; AAH 320 g/ha): 5 (Herbicidal rate of 90% or more (almost completely withered))
Herbicidal effect on B: Japanese bulrush (grade 0-5) (Japanese bulrush): 3 (Herbicidal rate of 40% or more and less than 70%)
R: persian speedwell, herbicidal effect rating (persian speedwell [3]; AAH 320 g/ha): 5 (Herbicidal rate of 90% or more (almost completely withered))
effect on windgrass (L) (windgrass [4]; [13]): 4 (Herbicidal rate of 70% or more and less than 90%)
herbicidal effect rating, C: oval-leafed pondweed (oval-leafed pondweed; AAH 320 g/ha): 3 (Herbicidal rate of 40% or more and less than 70%)
effect on lambsquarters (O) (lambsquarters [5]; [13]): 5 (Herbicidal rate of 90% or more (almost completely withered))
effect on barnyard grass (H) (barnyard grass; [13]): 5 (Herbicidal rate of 90% or more (almost completely withered))
herbicidal effect on D (Chinese sprangletop), rating 0-5 (Chinese sprangletop): 5 (Herbicidal rate of 90% or more (almost completely withered))
L: windgrass, herbicidal effect rating (windgrass [6]; AAH 320 g/ha): 0 (Herbicidal rate of 5% or less (almost no effect))
effect on velvetleaf (M) (velvetleaf; [13]): 5 (Herbicidal rate of 90% or more (almost completely withered))
F: southern crabgrass, herbicidal effect rating (southern crabgrass; AAH 320 g/ha): 5 (Herbicidal rate of 90% or more (almost completely withered))
effect on persian speedwell (R) (persian speedwell [7]; [13]): 5 (Herbicidal rate of 90% or more (almost completely withered))
J: blackgrass, herbicidal effect rating (blackgrass; AAH 320 g/ha): 2 (Herbicidal rate of 20% or more and less than 40%)
effect on wild oat (I) (wild oat [8]; [13]): 5 (Herbicidal rate of 90% or more (almost completely withered))
K: Italian ryegrass, herbicidal effect rating (Italian ryegrass; AAH 320 g/ha): 4 (Herbicidal rate of 70% or more and less than 90%)
herbicidal effect rating, A: late watergrass (late watergrass; AAH 320 g/ha): 1 (Herbicidal rate of 5% or more and less than 20%)

Cc1nn(C)c(=O)c(-c2c(-c3ccc(OCc4ccccc4)cc3)sc3ccc(F)cc23)c1O [2-062]
herbicidal effect rating, I: wild oat (wild oat [1]; 320 g/ha): 0 (Herbicidal rate of 5% or less (almost no effect))
herbicidal effect rating, O: lambsquarters (lambsquarters [2]; 320 g/ha): 3 (Herbicidal rate of 40% or more and less than 70%)
Herbicidal effect on B: Japanese bulrush (grade 0-5) (Japanese bulrush): 4 (Herbicidal rate of 70% or more and less than 90%)
herbicidal effect rating, R: persian speedwell (persian speedwell [3]; 320 g/ha): 3 (Herbicidal rate of 40% or more and less than 70%)
herbicidal effect on L: windgrass (windgrass [4]; [14]): 4 (Herbicidal rate of 70% or more and less than 90%)
herbicidal effect rating, C: oval-leafed pondweed (oval-leafed pondweed; AAH 320 g/ha): 2 (Herbicidal rate of 20% or more and less than 40%)
herbicidal effect on O: lambsquarters (lambsquarters [5]; [14]): 5 (Herbicidal rate of 90% or more (almost completely withered))
herbicidal effect on H: barnyard grass (barnyard grass; [14]): 5 (Herbicidal rate of 90% or more (almost completely withered))
herbicidal effect on D (Chinese sprangletop), rating 0-5 (Chinese sprangletop): 5 (Herbicidal rate of 90% or more (almost completely withered))
herbicidal effect rating, L: windgrass (windgrass [6]; 320 g/ha): 0 (Herbicidal rate of 5% or less (almost no effect))
herbicidal effect on M: velvetleaf (velvetleaf; [14]): 3 (Herbicidal rate of 40% or more and less than 70%)
herbicidal effect rating, F: southern crabgrass (southern crabgrass; 320 g/ha): 1 (Herbicidal rate of 5% or more and less than 20%)
herbicidal effect on R: persian speedwell (persian speedwell [7]; [14]): 5 (Herbicidal rate of 90% or more (almost completely withered))
herbicidal effect rating, J: blackgrass (blackgrass; 320 g/ha): 0 (Herbicidal rate of 5% or less (almost no effect))
herbicidal effect on I: wild oat (wild oat [8]; [14]): 0 (Herbicidal rate of 5% or less (almost no effect))
herbicidal effect rating, K: Italian ryegrass (Italian ryegrass; 320 g/ha): 0 (Herbicidal rate of 5% or less (almost no effect))
herbicidal effect rating, A: late watergrass (late watergrass; AAH 320 g/ha): 0 (Herbicidal rate of 5% or less (almost no effect))
